In the supplement of paper PMC10307832:

How the values were obtained:
Assay in all cases: relative viability (nuclei count vs DMSO), 5 days (fraction); higher = more cells survive
BX 795 + Tozasertib = compound: O=C(NCCCNc1nc(Nc2cccc(NC(=O)N3CCCC3)c2)ncc1I)c1cccs1 [BX 795] + Cc1cc(Nc2cc(N3CCN(C)CC3)nc(Sc3ccc(NC(=O)C4CC4)cc3)n2)n[nH]1 [Tozasertib] (partner 0.1 µM)
Procedure, shortened: (§1)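 Relative viability divides the nuclei count in treated wells by that in vehicle wells. Lung cancer cell lines were seeded in 1536-well plates, dosed by pin tool the next day, and fixed and stained after 5 days in one step with final 0.05% Triton X-100, 1% formaldehyde and 1 ug/ml Hoechst. Dosing was a single drug or a fixed anchor-drug dose plus five library-drug doses (not always all listed) in √10 steps, and values are medians of duplicate plates imaged at 4×.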

BX 795 + Decitabine = compound: O=C(NCCCNc1nc(Nc2cccc(NC(=O)N3CCCC3)c2)ncc1I)c1cccs1 [BX 795] + Nc1ncn([C@H]2C[C@H](O)[C@@H](CO)O2)c(=O)n1 [Decitabine] (partner 2 µM)
Procedure, shortened: as §1

BX 795 + Pemetrexed = compound: O=C(NCCCNc1nc(Nc2cccc(NC(=O)N3CCCC3)c2)ncc1I)c1cccs1 [BX 795] + Nc1nc2[nH]cc(CCc3ccc(C(=O)N[C@@H](CCC(=O)O)C(=O)O)cc3)c2c(=O)[nH]1 [Pemetrexed] (partner 0.2 µM)
Procedure, shortened: as §1

BX 795 + Vorinostat = compound: O=C(NCCCNc1nc(Nc2cccc(NC(=O)N3CCCC3)c2)ncc1I)c1cccs1 [BX 795] + O=C(CCCCCCC(=O)Nc1ccccc1)NO [Vorinostat] (partner 1 µM)
Procedure, shortened: as §1

BX 795 + Navitoclax = compound: O=C(NCCCNc1nc(Nc2cccc(NC(=O)N3CCCC3)c2)ncc1I)c1cccs1 [BX 795] + CC1(C)CCC(c2ccc(Cl)cc2)=C(CN2CCN(c3ccc(C(=O)NS(=O)(=O)c4ccc(N[C@H](CCN5CCOCC5)CSc5ccccc5)c(S(=O)(=O)C(F)(F)F)c4)cc3)CC2)C1 [Navitoclax] (partner 0.5 µM)
Procedure, shortened: as §1

Cell Line	relative viability (BX 795 + Tozasertib; first compound 0.04 µM)	relative viability (BX 795 + Tozasertib; first compound 0.1265 µM)	relative viability (BX 795 + Tozasertib; first compound 0.4 µM)	relative viability (BX 795 + Tozasertib; first compound 1.265 µM)	relative viability (BX 795 + Decitabine; first compound 0.04 µM)	relative viability (BX 795 + Decitabine; first compound 0.1265 µM)	relative viability (BX 795 + Decitabine; first compound 0.4 µM)	relative viability (BX 795 + Decitabine; first compound 1.265 µM)	relative viability (BX 795 + Pemetrexed; first compound 0.04 µM)	relative viability (BX 795 + Pemetrexed; first compound 0.1265 µM)	relative viability (BX 795 + Pemetrexed; first compound 0.4 µM)	relative viability (BX 795 + Pemetrexed; first compound 1.265 µM)	relative viability (BX 795 + Vorinostat; first compound 0.04 µM)	relative viability (BX 795 + Vorinostat; first compound 0.1265 µM)	relative viability (BX 795 + Vorinostat; first compound 0.4 µM)	relative viability (BX 795 + Vorinostat; first compound 1.265 µM)	relative viability (BX 795 + Navitoclax; first compound 0.04 µM)	relative viability (BX 795 + Navitoclax; first compound 0.1265 µM)	relative viability (BX 795 + Navitoclax; first compound 0.4 µM)	relative viability (BX 795 + Navitoclax; first compound 1.265 µM)
NCI-H650	0.864	0.769	0.583	0.488	0.458	0.299	0.458	0.357	0.889	1.04	0.866	0.809	0.391	0.429	0.339	0.34				
NCI-H441	0.857	0.567	0.834	0.376	0.281	0.262	0.316	0.245	0.255	0.272	0.281	0.267	0.893	0.843	0.848	0.613	0.867	0.429	1.03	0.564
HCC-827	0.416	0.45	0.429	0.417	0.416	0.327	0.387	0.303	0.266	0.288	0.245	0.241	0.756	0.689	0.901	0.79	1.1	0.974	1.05	0.908
NCI-H2023	0.316	0.295	0.215	0.139	0.241	0.238	0.21	0.199	0.257	0.221	0.139	0.182	0.471	0.689	0.189	0.3	0.933	1.08	0.36	0.645
NCI-H1975	0.707	0.794	0.623	0.234	0.434	0.472	0.35	0.359	0.272	0.299	0.247	0.297	0.761	0.713	0.656	0.399	1.19	1.24	1.16	0.985
SK-LU-1	0.312	0.356		0.211	0.676	0.679	0.505	0.601	0.895	0.988	0.646	0.823	0.674	0.764	0.595	0.593	0.702	0.915	0.553	0.724
NCI-H2347	0.817	0.64	0.603	0.441	0.65	0.653	0.69	0.636	0.424	0.375	0.434	0.434	0.5	0.633	0.717	0.505	1.02	0.743	1.05	0.76
SK-MES-1	0.883	0.832	0.905	0.223	0.503	0.358	0.392	0.39	0.923	0.854	0.612	0.649	1.1	1.11	0.545	0.748	1.26	1.32	1.23	0.886
NCI-H661	0.374	0.369	0.378	0.412	0.683	0.594	0.589	0.533	0.855	0.98	0.521	0.784	0.824	0.862	0.832	0.449				
NCI-H2170	0.724	0.731	0.74	0.712	0.542	0.47	0.48	0.443	0.271	0.286	0.243	0.249	0.942	0.985	0.824	0.817	0.674	0.62	0.659	0.53
LU99A	0.3	0.286	0.287	0.261	0.967	0.81	0.921	0.428	0.148	0.197	0.128	0.209	0.472	0.485	0.37	0.363	1.03	0.755	0.821	0.498
HCC-15	0.444	0.359	0.482	0.246	0.585	0.646	0.684	0.448	0.199	0.202	0.215	0.194	0.773	0.865	0.818	0.718	0.751	0.7	0.756	0.53
H3255	0.716	0.605	0.773	0.55	0.647	0.819	0.664	0.616	0.615	0.531	0.584	0.509	0.79	0.797	0.938	0.754	0.663	0.484	0.694	0.527
NCI-H2009	0.705	0.714	0.678	0.381	0.391	0.39	0.4	0.374	0.973	0.978	1.04	0.907	0.731	0.67	0.818	0.591	1.23	1.1	1.19	0.853
NCI-H322M	0.456	0.488	0.372	0.47	0.87	0.887	0.801	0.741	0.591	0.606	0.603	0.672	0.981	0.884	1.36	1.18	1.41	1.19	1.35	1.25
NCI-H2405	0.799	0.715	0.746	0.581	0.869	0.742	0.693	0.722	1.06	1.02	0.996	1.05	1.01	0.809	0.951	0.821	0.827	0.848	0.588	0.7
NCI-H1666	0.642	0.69	0.599	0.403	0.925	0.69	0.785	0.686	0.836	0.83	0.697	0.79	1.13	0.97	1.22	0.923	1.12	1.31	1.14	0.717
NCI-H727	0.683	0.706	0.512	0.546	1.23	0.943	0.845	0.905					1.29	1.25	1.14	1.21	0.45	0.535	0.471	0.37

Cell Line	relative viability (BX 795 + Tozasertib; first compound 0.04 µM)	relative viability (BX 795 + Tozasertib; first compound 0.1265 µM)	relative viability (BX 795 + Tozasertib; first compound 0.4 µM)	relative viability (BX 795 + Tozasertib; first compound 1.265 µM)	relative viability (BX 795 + Decitabine; first compound 0.04 µM)	relative viability (BX 795 + Decitabine; first compound 0.1265 µM)	relative viability (BX 795 + Decitabine; first compound 0.4 µM)	relative viability (BX 795 + Decitabine; first compound 1.265 µM)	relative viability (BX 795 + Pemetrexed; first compound 0.04 µM)	relative viability (BX 795 + Pemetrexed; first compound 0.1265 µM)	relative viability (BX 795 + Pemetrexed; first compound 0.4 µM)	relative viability (BX 795 + Pemetrexed; first compound 1.265 µM)	relative viability (BX 795 + Vorinostat; first compound 0.04 µM)	relative viability (BX 795 + Vorinostat; first compound 0.1265 µM)	relative viability (BX 795 + Vorinostat; first compound 0.4 µM)	relative viability (BX 795 + Vorinostat; first compound 1.265 µM)	relative viability (BX 795 + Navitoclax; first compound 0.04 µM)	relative viability (BX 795 + Navitoclax; first compound 0.1265 µM)	relative viability (BX 795 + Navitoclax; first compound 0.4 µM)	relative viability (BX 795 + Navitoclax; first compound 1.265 µM)
RERF-LC-KJ	0.599	0.501	0.445	0.217	0.762	0.759	0.792	0.56		0.444	0.443	0.467		0.667	0.59	0.541	0.759	0.93	0.771	0.881
ABC-1	0.193	0.151	0.145	0.148	1.03		1.3	1.49					0.961		1.24	0.922				
PC-3 [JPC-3]	0.931	0.851	0.881	0.872	0.834		0.907	0.725	1.04		1.16	1.02	0.766		0.929	0.809	0.864	0.838	0.905	0.75
PC-14	0.619	0.595	0.47	0.427	0.226	0.211	0.17	0.178	0.0872	0.135	0.0536	0.115	0.819	0.778	0.424	0.433	0.976	0.988	1.08	0.795
COR-L 105	0.391	0.362	0.405	0.267	0.636	0.589	0.507	0.603	1.12	1.02	0.816	0.882	0.835	0.702	0.622	0.429	0.795	0.583	0.652	0.39
SW 1573	0.209	0.185	0.142	0.155	0.651	0.652	0.581	0.381	0.748	0.81	0.836	0.516	0.862	0.875	0.558	0.276	0.886	1.13	1.12	0.837
NCI-H1793	0.372	0.326	0.375	0.213	0.589	0.443	0.674	0.374	0.872	0.628	0.856	0.711	0.888	0.753	0.803	0.293	0.575	0.362	0.39	0.272
NCI-H1651	0.711	0.709	0.59	0.641	0.801	0.624	0.6	0.645	0.602	0.571	0.409	0.596	0.553	0.478	0.548	0.541	1	1.13	1.04	0.932
UMC-11	0.189	0.195	0.185	0.22	0.457	0.688	0.436	0.593	0.826	0.749	0.736	0.453	0.422	0.308	0.354	0.348	0.321	0.347	0.326	0.17
NCI-H358	0.1	0.107	0.0928	0.098	0.351	0.236	0.339	0.183	0.167	0.168	0.134	0.123	0.716	0.661	0.434	0.138				
CAL-12T	0.323	0.288	0.298	0.263					1.1	1.28	0.809	0.494	0.661	0.715	0.523	0.413	1.08	1.23	1.25	0.497
LCLC-103H	0.476	0.475	0.477	0.379	0.714	0.656	0.863	0.631	0.432	0.429	0.407	0.452	0.675	0.811	0.699	0.695				
IA-LM													0.79	1.06	0.992	0.892	0.755	0.725	0.952	0.52
NCI-H2228	0.283	0.247	0.303	0.217					0.329	0.331	0.268	0.281	0.761	0.898	0.63	0.556	0.894	0.811	0.857	0.486
NCI-H1792					0.546		0.588	0.408	0.918		0.882	0.533					0.624	0.556	0.708	0.568
A549					0.332	0.289	0.329	0.282									1.19	1.24	1.47	0.739
SW 900	0.571	0.549	0.657	0.233	0.543		0.622	0.485	0.488		0.469	0.455	0.482		0.611	0.604				
